The target in assay [1] is T1, M-phase inducer phosphatase 2 (Homo sapiens, UniProt P30305).
T1 sequence (P30305 whole entry): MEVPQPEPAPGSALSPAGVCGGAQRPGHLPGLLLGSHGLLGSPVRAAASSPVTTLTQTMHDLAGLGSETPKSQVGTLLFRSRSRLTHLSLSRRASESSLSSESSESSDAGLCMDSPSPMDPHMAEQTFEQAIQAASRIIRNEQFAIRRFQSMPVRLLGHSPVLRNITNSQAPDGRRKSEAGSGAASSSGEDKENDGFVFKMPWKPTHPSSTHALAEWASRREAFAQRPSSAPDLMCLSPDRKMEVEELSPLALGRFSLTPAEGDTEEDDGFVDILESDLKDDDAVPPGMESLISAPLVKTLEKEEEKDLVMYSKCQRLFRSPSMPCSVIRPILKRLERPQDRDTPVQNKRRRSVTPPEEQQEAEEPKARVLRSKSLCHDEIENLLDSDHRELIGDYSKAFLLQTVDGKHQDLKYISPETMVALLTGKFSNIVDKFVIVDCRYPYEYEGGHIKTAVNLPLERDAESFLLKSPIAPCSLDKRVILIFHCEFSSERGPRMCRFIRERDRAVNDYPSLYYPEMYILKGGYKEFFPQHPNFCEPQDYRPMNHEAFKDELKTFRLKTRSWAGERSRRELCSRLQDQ
Briefly: Concentration required to inhibit human Cell division cycle 25B activity.

For assay [2], the target named is T2, M-phase inducer phosphatase 1 (Homo sapiens, UniProt P30304).
T2 sequence (P30304 whole entry): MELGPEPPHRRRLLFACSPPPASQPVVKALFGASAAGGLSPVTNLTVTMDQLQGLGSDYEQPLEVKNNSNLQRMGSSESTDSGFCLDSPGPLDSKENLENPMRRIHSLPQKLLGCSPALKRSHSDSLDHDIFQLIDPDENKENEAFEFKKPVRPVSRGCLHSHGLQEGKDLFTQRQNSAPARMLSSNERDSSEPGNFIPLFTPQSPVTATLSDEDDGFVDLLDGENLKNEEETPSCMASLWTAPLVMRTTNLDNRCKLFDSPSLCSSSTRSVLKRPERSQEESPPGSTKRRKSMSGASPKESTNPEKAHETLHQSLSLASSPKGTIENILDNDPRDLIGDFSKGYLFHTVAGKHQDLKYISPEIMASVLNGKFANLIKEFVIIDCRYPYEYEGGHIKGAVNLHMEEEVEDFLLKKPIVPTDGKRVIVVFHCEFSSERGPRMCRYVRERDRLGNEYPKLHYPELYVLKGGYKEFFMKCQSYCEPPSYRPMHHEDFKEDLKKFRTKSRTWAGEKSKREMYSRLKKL
The assay can be described thus: Concentration required to inhibit human Cell division cycle 25A activity.

Assay [3] concerns the target T2, M-phase inducer phosphatase 1. Briefly: Concentration required to inhibit human Cell division cycle 25A activity; Value ranges from […] to […].

Molecules are shown by their SMILES.

In the case of `CC(C)CCC[C@@H](C)[C@H]1CCC2/C(=C/C(=O)O)CCC[C@@]21C` (stereo partly drawn), the values for the IC50 in assay [1] and in assay [2] were 8 µM and 5.5 µM, respectively.

Regarding `C=C1CC[C@H](O)C/C1=C/C=C1\CCC[C@@]2(C)C1CC[C@@H]2[C@H](C)CCCC(C)C` (stereo partly drawn), inhibition in assay [3] was half-maximal at 0.89 µM (IC50).

These data come from ChEMBL document CHEMBL1146660 (Bioorg Med Chem Lett, 2004).
